Experimental data: DBAASP
≈ marks a conversion by molar mass, not a printed value.

Columns and labels:
Test in all cases: ≥ marks a high value that may be exact or a test limit, other limits are often not marked, values filed in µg/mL are converted to µM
[1] = tested on: Staphylococcus aureus ATCC 6538P
[2] = tested on: Escherichia coli K-12 594
[3] = tested on: Staphylococcus aureus SR1550
[4] = tested on: Pseudomonas aeruginosa PAO1
[5] = tested on: Pseudomonas aeruginosa CICC 21630
[6] = tested on: Salmonella enterica subsp. enterica serovar Pullorum C79-13
[7] = tested on: Escherichia coli ATCC 25922
[8] = tested on: Salmonella enterica subsp. enterica serovar Typhimurium C77-31
Escherichia coli UB1005 = tested on: Escherichia coli UB1005
Escherichia coli = tested on: Escherichia coli
Acinetobacter baumannii = tested on: Acinetobacter baumannii
Pseudomonas aeruginosa = tested on: Pseudomonas aeruginosa
[9] = tested on: Pseudomonas aeruginosa CICC 21625
Escherichia coli K99 = tested on: Escherichia coli K99
[10] = tested on: Salmonella enterica subsp. enterica serovar Typhimurium ATCC 14028
Klebsiella pneumoniae = tested on: Klebsiella pneumoniae
[11] = tested on: Pseudomonas aeruginosa ATCC 27853
Escherichia coli K88 = tested on: Escherichia coli K88
Candida albicans = tested on: Candida albicans
[12] = tested on: Candida parapsilosis CGMCC 2.3989
[13] = tested on: Candida albicans CGMCC 2.2086
[14] = tested on: Candida tropicalis CGMCC 2.1975

Row | MIC [1] | MIC [2] | MIC [3] | MIC [4] | MIC [5] | MIC [6] | MIC [7] | MIC [8] | MIC (Escherichia coli UB1005) | MIC (Escherichia coli) | MIC (Acinetobacter baumannii) | MIC (Pseudomonas aeruginosa) | MIC [9] | MIC (Escherichia coli K99) | MIC [10] | MIC (Klebsiella pneumoniae) | MIC [11] | MIC (Escherichia coli K88) | SMILES | other results
1 | 0.725 µM (≈ 0.999 µg/mL) | 14.5 µM (≈ 20 µg/mL) | 21.8 µM (≈ 30 µg/mL) |  |  |  |  |  |  |  |  |  |  |  |  |  |  |  | CC(C)C[C@H](NC(=O)[C@H](CCCN=C(N)N)NC(=O)[C@H](CC(C)C)NC(=O)[C@H](CC(C)C)NC(=O)[C@H](CC(C)C)NC(=O)[C@H](CC(C)C)NC(=O)[C@H](CC(C)C)NC(=O)[C@H](CCCCN)NC(=O)[C@H](CC(C)C)NC(=O)[C@@H](N)CCCN=C(N)N)C(=O)N[C@@H](CCCCN)C(N)=O [RLKLLLLLRLK] | 
2 | 1.74 µM (≈ 2 µg/mL) | 26 µM (≈ 30 µg/mL) | 30.4 µM (≈ 35 µg/mL) |  |  |  |  |  |  |  |  |  |  |  |  |  |  |  | CC(C)C[C@H](NC(=O)[C@H](CCCN=C(N)N)NC(=O)[C@H](CC(C)C)NC(=O)[C@H](CC(C)C)NC(=O)[C@H](CC(C)C)NC(=O)[C@H](CCCCN)NC(=O)[C@H](CC(C)C)NC(=O)[C@@H](N)CCCN=C(N)N)C(=O)N[C@@H](CCCCN)C(N)=O [RLKLLLRLK] | 
3 |  |  |  | 1 µM (≈ 3.37 µg/mL) | 2 µM (≈ 6.75 µg/mL) | 1 µM (≈ 3.37 µg/mL) | 1 µM (≈ 3.37 µg/mL) | 2 µM (≈ 6.75 µg/mL) | 2 µM (≈ 6.75 µg/mL) | 1 µM (≈ 3.37 µg/mL) | 1 µM (≈ 3.37 µg/mL) | 2.83 µM (≈ 9.54 µg/mL) | 8 µM (≈ 27 µg/mL) | 1 µM (≈ 3.37 µg/mL) | 1 µM (≈ 3.37 µg/mL) | 2 µM (≈ 6.75 µg/mL) | 1 µM (≈ 3.37 µg/mL) | 1 µM (≈ 3.37 µg/mL) | CC(C)C[C@H](NC(=O)[C@@H]1CCCN1C(=O)[C@H](CCCN=C(N)N)NC(=O)[C@H](CC(C)C)NC(=O)[C@H](CC(C)C)NC(=O)[C@@H]1CCCN1C(=O)[C@H](CCCN=C(N)N)NC(=O)[C@H](CC(C)C)NC(=O)[C@H](CC(C)C)NC(=O)[C@@H]1CCCN1C(=O)[C@H](CCCN=C(N)N)NC(=O)[C@H](CC(C)C)NC(=O)[C@H](CC(C)C)NC(=O)[C@@H]1CCCN1C(=O)[C@H](CCCN=C(N)N)NC(=O)[C@H](CC(C)C)NC(=O)[C@H](CC(C)C)NC(=O)[C@@H]1CCCN1C(=O)[C@H](CCCN=C(N)N)NC(=O)[C@H](CC(C)C)NC(=O)[C@H](CC(C)C)NC(=O)[C@@H]1CCCN1C(=O)[C@H](CCCN=C(N)N)NC(=O)[C@H](CC(C)C)NC(=O)[C@H](CC(C)C)NC(=O)[C@@H]1CCCN1C(=O)[C@H](CCCN=C(N)N)NC(=O)[C@@H](N)CC(C)C)C(N)=O [LRPLLRPLLRPLLRPLLRPLLRPLLRPL] | 
4 | 14.6 µM (≈ 16 µg/mL) | 31.9 µM (≈ 35 µg/mL) | 31.9 µM (≈ 35 µg/mL) |  |  |  |  |  |  |  |  |  |  |  |  |  |  |  | CC(C)C[C@H](NC(=O)[C@H](CC(C)C)NC(=O)[C@H](CC(C)C)NC(=O)[C@H](CC(C)C)NC(=O)[C@H](CC(C)C)NC(=O)[C@H](CCCCN)NC(=O)[C@@H](N)CCCCN)C(=O)N[C@@H](CCCCN)C(=O)N[C@@H](CCCCN)C(N)=O [KKLLLLLKK] | 
5 |  |  |  |  |  |  |  |  |  |  |  |  |  |  |  |  |  |  | CC[C@H](C)[C@H](NC(=O)[C@@H](N)CCCCN)C(=O)NCC(=O)N[C@@H](CCCCN)C(=O)N[C@H](C(=O)N[C@@H](CC(C)C)C(N)=O)C(C)C [KIGKVL] | MIC (Candida albicans): > 64 µM; MIC [12]: ≥ 64 µM; MIC [13]: ≥ 64 µM; MIC [14]: ≥ 64 µM
6 |  |  |  | > 64 µM | ≥ 64 µM | 4 µM (≈ 12.7 µg/mL) | 8 µM (≈ 25.4 µg/mL) | 16 µM (≈ 50.8 µg/mL) | 8 µM (≈ 25.4 µg/mL) | 8 µM (≈ 25.4 µg/mL) | 4 µM (≈ 12.7 µg/mL) | > 64 µM | ≥ 64 µM | 16 µM (≈ 50.8 µg/mL) | 8 µM (≈ 25.4 µg/mL) | 32 µM (≈ 102 µg/mL) | > 64 µM | 8 µM (≈ 25.4 µg/mL) | CC(C)[C@H](N)C(=O)N[C@@H](CCCN=C(N)N)C(=O)N1CCC[C@H]1C(=O)N[C@H](C(=O)N[C@H](C(=O)N[C@@H](CCCN=C(N)N)C(=O)N1CCC[C@H]1C(=O)N[C@H](C(=O)N[C@H](C(=O)N[C@@H](CCCN=C(N)N)C(=O)N1CCC[C@H]1C(=O)N[C@H](C(=O)N[C@H](C(=O)N[C@@H](CCCN=C(N)N)C(=O)N1CCC[C@H]1C(=O)N[C@H](C(=O)N[C@H](C(=O)N[C@@H](CCCN=C(N)N)C(=O)N1CCC[C@H]1C(=O)N[C@H](C(=O)N[C@H](C(=O)N[C@@H](CCCN=C(N)N)C(=O)N1CCC[C@H]1C(=O)N[C@H](C(=O)N[C@H](C(=O)N[C@@H](CCCN=C(N)N)C(=O)N1CCC[C@H]1C(=O)N[C@H](C(N)=O)C(C)C)C(C)C)C(C)C)C(C)C)C(C)C)C(C)C)C(C)C)C(C)C)C(C)C)C(C)C)C(C)C)C(C)C)C(C)C [VRPVVRPVVRPVVRPVVRPVVRPVVRPV] | 
7 |  |  |  | > 64 µM | ≥ 64 µM | ≥ 64 µM | 16 µM (≈ 43.6 µg/mL) | ≥ 64 µM | 16 µM (≈ 43.6 µg/mL) | 64 µM (≈ 175 µg/mL) | 16 µM (≈ 43.6 µg/mL) | > 64 µM | ≥ 64 µM | 8 µM (≈ 21.8 µg/mL) | 64 µM (≈ 175 µg/mL) | > 64 µM | > 64 µM | 4 µM (≈ 10.9 µg/mL) | CC[C@H](C)[C@H](N)C(=O)N[C@@H](CCCCN)C(=O)N1CCC[C@H]1C(=O)N[C@H](C(=O)N[C@H](C(=O)N[C@@H](CCCCN)C(=O)N1CCC[C@H]1C(=O)N[C@H](C(=O)N[C@H](C(=O)N[C@@H](CCCCN)C(=O)N1CCC[C@H]1C(=O)N[C@H](C(=O)N[C@H](C(=O)N[C@@H](CCCCN)C(=O)N1CCC[C@H]1C(=O)N[C@H](C(=O)N[C@H](C(=O)N[C@@H](CCCCN)C(=O)N1CCC[C@H]1C(=O)N[C@H](C(=O)N[C@H](C(=O)N[C@@H](CCCCN)C(=O)N1CCC[C@H]1C(=O)N[C@H](C(N)=O)[C@@H](C)CC)[C@@H](C)CC)[C@@H](C)CC)[C@@H](C)CC)[C@@H](C)CC)[C@@H](C)CC)[C@@H](C)CC)[C@@H](C)CC)[C@@H](C)CC)[C@@H](C)CC)[C@@H](C)CC [IKPIIKPIIKPIIKPIIKPIIKPI] | 
8 |  |  |  |  |  |  |  |  |  |  |  |  |  |  |  |  |  |  | CC[C@H](C)[C@H](NC(=O)CNC(=O)[C@H](CCCCN)NC(=O)[C@@H](NC(=O)[C@H](CC(C)C)NC(=O)[C@H](CC(C)C)NC(=O)[C@@H](NC(=O)[C@H](CCCCN)NC(=O)CNC(=O)[C@@H](NC(=O)[C@@H](N)CCCCN)[C@@H](C)CC)C(C)C)C(C)C)C(=O)N[C@@H](CCCCN)C(N)=O [KIGKVLLVKGIK] | MIC (Candida albicans): > 64 µM; MIC [12]: ≥ 64 µM; MIC [13]: ≥ 64 µM; MIC [14]: ≥ 64 µM
